Reference: patent US9029092B2, “Solution phase homogeneous assays” (Beckman Coulter, Inc., priority 2009, dated 2015)

What was measured:
PSA [1] = test: Assay of PSA with dextran scaffold chemiluminescent-labeled sbp with and without SSIA; format: biochemical, human; settings: ascorbic acid as SSIA
Experimental: In this example, one member of a specific binding pair of monoclonal antibodies for PSA is conjugated to a dextran molecule coupled with AK1, as described in Example 10 below, except the antibody is thiolated and covalently-linked to AK11-labeled and maleimide-activated dextran. A second monoclonal PSA antibody was conjugated to HRP, as described above and provided in an aqueous solution at either 0.5 μg/ml, 0.1 μg/ml or 0.03 μg/ml as indicated in the tables below. The assays were performed by placing 25 μl of sample in each of two reaction vessels. To the sample in the first reaction vessel, 25 μl of Ab1 solution, 25 μl of water, 25 μl of Ab2 solution was added and incubated for 15 minutes. […] Each sample was analyzed according to the above assay method in triplicate. […] A ratio of signal to noise (S/S0) was calculated at each concentration value. […] Samples of known concentration were prepared as described previously. Each sample was analyzed according to the above method in triplicate.

PSA [2] = test: Assay of PSA with direct-labeled sbp's (Ab1-AK11, Ab2-HRP) with and without SSIA; format: biochemical, human; settings: 600 μM ascorbic acid solution
Experimental: The Ab1-AK11 conjugate was provided in PBS, pH 7.4 at 10 μg/ml. The Ab2-HRP conjugate was provided in PBS, pH 7.4 at 0.25 μg/ml. […] For comparison without SSIA, in a second reaction vessel, 25 μl of Ab1-AK11 conjugate, 25 μl of water, 25 μl of Ab2-HRP conjugate were added to 25 μl of sample and incubated for 15 minutes.
Each sample was analyzed according to the above assay method in triplicate. The RLU data collected for each assayed sample during the time interval of 495 milliseconds starting 125 milliseconds from start of trigger solution introduction into the reaction vessel was summed for each individual run, averaged over the triplicates for each sample and presented in Table 13. A ratio of signal to noise (S/S0) was calculated at each concentration value.

TnI = test: Assays utilizing various SSIA in TnI assay; format: biochemical; settings: for Signal/Noise S1/S0: calibrator S1; for Signal/Noise S2/S0: calibrator S2; for Signal/Noise S3/S0: calibrator S3; for Signal/Noise S4/S0: calibrator S4; for Signal/Noise S5/S0: calibrator S5; for Signal/Noise S6/S0: calibrator S6
Experimental: In a reaction tube, 400 uL of TnI M6 antibody-HRP conjugate at 0.5 ug/mL in buffered aqueous solution at pH. 8.0 (100 mM Tris, 150 mM NaCl, 0.1 mM EDTA, 0.2% Tween-20 and 1% BSA), 400 uL of AK1˜Dex70/31˜Streptavidin (fraction 1) 2:1 SA/Ab at 2 ug/mL Ab also in buffered aqueous solution at pH 8.0, and 400 uL of calibrator standard solution containing the TnI analyte at a known concentration. One tube was prepared for each calibrator concentration. […] Next, 25 uL of each antioxidant as a concentrated solution of 2 mM, 1 mM or 0.5 mM was pipetted into the plate wells using a repeater pipette. The plates were rotated for 10 seconds to mix and incubated between 5 to 33 minutes. Detection was performed with a SpectraMax L injection plate luminometer.

[3] = SSIA final concentration 125 uM
[4] = SSIA final concentration 250 uM
[5] = SSIA final concentration 500 uM

## O=C1O[C@H]([C@@H](O)CO)C(O)=C1O [Ascorbic Acid]
PSA [1]; PSA 0.0 ng/mL
  RLU, w/SSIA: 1756 RLU
  S/S0, w/SSIA: 1.0
PSA [1]; PSA 0.4 ng/mL
  RLU, w/SSIA: 4393 RLU
  S/S0, w/SSIA: 2.5
PSA [1]; PSA 7.0 ng/mL
  RLU, w/SSIA: 57119 RLU
  S/S0, w/SSIA: 32.5
PSA [1]; PSA 101.6 ng/mL
  RLU, w/SSIA: 604024 RLU
  S/S0, w/SSIA: 344.0
PSA [2]; PSA 0.0 ng/mL
  RLU, With SSIA: 180 RLU
  S/S0, With SSIA: 1.0
PSA [2]; PSA 0.4 ng/mL
  RLU, With SSIA: 324 RLU
  S/S0, With SSIA: 1.8
PSA [2]; PSA 7.0 ng/mL
  RLU, With SSIA: 3032 RLU
  S/S0, With SSIA: 16.8
PSA [2]; PSA 101.6 ng/mL
  RLU, With SSIA: 23119 RLU
  S/S0, With SSIA: 128.4
TnI; [3]
  Signal/Noise S1/S0: 1.4
  Signal/Noise S2/S0: 2.7
  Signal/Noise S3/S0: 8.5
  Signal/Noise S4/S0: 32.2
  Signal/Noise S5/S0: 228.0
  Signal/Noise S6/S0: 2196.3
TnI; [4]
  Signal/Noise S1/S0: 1.6
  Signal/Noise S2/S0: 2.6
  Signal/Noise S3/S0: 8.2
  Signal/Noise S4/S0: 28.7
  Signal/Noise S5/S0: 188.5
  Signal/Noise S6/S0: 1511.1
TnI; [5]
  Signal/Noise S1/S0: 1.3
  Signal/Noise S2/S0: 1.8
  Signal/Noise S3/S0: 5.1
  Signal/Noise S4/S0: 15.4
  Signal/Noise S5/S0: 87.5
  Signal/Noise S6/S0: 562.4
